# Source: publication PMC5567253 (Scientific Reports, 2017)
# Where two headings read alike, the source gives them in different places.
# Assays:
# [1] = In vivo pharmacokinetics in rat plasma (UPLC-MS/MS, NCA); parameters: species or system Sprague-Dawley (SD) rats; conditions: male, Sprague-Dawley, plasma, ip, intraperitoneal
# Method: Male Sprague-Dawley (SD) rats (250 ± 50 g body weight) were purchased from Institute of Laboratory Animal Sciences, Peking Union Medical College (Beijing, China). Rats were housed in a light-controlled room at 25 ± 2 °C and 55 ± 5% relative humidity, at the Animal Center of Tianjin Medical University Cancer Institute and Hospital (Tianjin, China). Animals received a standard diet and water ad libitum. […] At 0, 10, 20, 30, 40 min, 1, 2, 3, 4, 6, 8, 10, 12, and 24 h post injection, blood samples were collected into heparinized glass tubes by direct venipuncture. Plasma was prepared from the blood by centrifugation at 13,000 rpm for 10 min at 4 °C and stored at −80 °C until further analysis.
# An ACQUITY™ ultra-performance liquid chromatography system connected to a Xevo triple quadrupole mass spectrometry system (Waters, MA, USA) equipped with an electrospray ionization (ESI) source was used in this study. Aliquots (50 μl) of plasma was vortex-mixed with methanol (400 μl) containing diazepam (internal standard, 200 ng/ml concentration) for 2 min and then centrifuged at 13,000 rpm at 4 °C for 10 min. Then, 400 μl of supernatant was transferred to a clean centrifuge tube and dried with an N2 gas stream. Samples were reconstituted with 100 μl methanol/H2O (50/50, v/v). The injection volume of the assay was 5 μl. The mobile phase (MP) was composed of MPA (acetonitrile) and MPB (5 mM ammonium formate with 0.1% formic acid in water), and the flow rate was maintained at 0.3 ml/min. […] A switching valve directed the flow eluting between 1.0–2.5 min into a mass spectrometer, and the remainder to a waste container. BHX and diazepam were ionized with ESI in the positive mode and fragmented with collision gas for analysis using multiple reaction monitoring (MRM). The ESI source settings for the analysis were as follows: 350 °C gas temperature; 650 L/h desolvation; 50 L/h cone; 2.5 kV capillary voltage. […] The data acquisition and processing were done using MassLynx Mass Spectrometry software, version 4.1 (Waters, MA, USA). The dwell time was 400 ms for all ion transitions monitored.
# MGC803 = system: MGC803; parameters: method as in PMID 24098916; conditions: cited from earlier work
# HT29 = system: HT29; parameters: method as in PMID 24098916; conditions: cited from earlier work
# [2] = system: MDA-MB-231 xenografted tumours; test: Mouse xenograft model, anti-tumour effect in vivo; parameters: species or system BALB/c nude mice
# Method: Female BALB/c nude mice (18 ± 2 g) were purchased from Institute of Laboratory Animal Sciences, Peking Union Medical College (Beijing, China). […] The tumour length and width were measured using callipers and the tumour volume was calculated twice weekly. The body weight of mice was determined at least twice weekly during the study period.
# [3] = system: E-cadherin protein in MDA-MB-231 cells; test: Western blotting of E-cadherin; assay type: cell-based, human; conditions: western blot
# Method: (§1) Total cell lysates were obtained by lysing the cells in SDS lysis buffer containing a protease inhibitor (PMSF), and protein concentrations were determined using a BCA protein assay kit. The proteins were separated by SDS-PAGE and transferred to PVDF membranes. The membranes were incubated with primary antibodies against Snail, Vimentin, β-catenin, and E-cadherin (1:1000 dilution) overnight at 4 °C, rinsed with TBST, and incubated with IRDye-conjugated anti-rabbit or anti-mouse IgG secondary antibodies (1:1000, LI-COR Biosciences). A β-actin-specific monoclonal antibody (1:1000 dilution) was used as a loading control. Bands were visualized with an Odyssey LI-COR infrared imaging system (LI-COR, Lincoln, NE).
# MDA-MB-231 cells [4] = test: Scratch-wound (wound healing) migration assay; assay type: cell-based; conditions: Homo sapiens, 20 h
# Method: (§2) Cell invasion and migration were measured using Transwell and wound healing assays, respectively. For Transwell assays, 2 × 10^4 cells were suspended in serum-free media and seeded in the top chamber of Matrigel-coated invasion inserts (Corning life science, Corning, NY). BHX was then added to the top chambers. DMEM containing 10% FBS was added to the lower chamber as a chemoattractant. After 24 h incubation, the non-invading cells on the upper surface of the membrane were wiped away, and the invading cells on the lower surface of the membrane were fixed using 95% ethanol and stained with 0.1% crystal violet. Images were captured at ×200 magnification using an inverted phase contrast microscope (BX61, Olympus, Japan). In parallel, cells were treated identically in 24-well plate. These cells were harvested, stained with 0.1% crystal violet, and counted. The number of cells that had invaded was normalized for effects on cell viability. For wound healing assays, cells were seeded at 2 × 10^5 cells/well in 24-well culture plates and allowed to reach confluence. […] Images of the scratches were recorded at ×40 magnification using a phase contrast microscope (EVOS, AMG, USA) at 0 and 20 h. The areas between leading edges were measured using Image J software, after which the rates of wound healing were calculated.
# MDA-MB-231 cells [5] = test: Transwell invasion assay; assay type: cell-based, human; conditions: 20 μM, 24 h, normalized for cell viability
# Method: as §2
# [6] = system: Snail expression in MDA-MB-231 cells; test: PCR analysis of Snail expression; assay type: cell-based, human; conditions: 24 h
# Method: (§3) Total RNA from MDA-MB-231 cells was isolated using TRIzol (Life Technologies, USA). RNA samples were quantified using a NanoDrop 3300 spectrophotometer (Thermo Scientific, NanoDrop Products, Wilmington, DE, USA). Synthesis of cDNA was performed using a RevertAid First Strand cDNA Synthesis kit per manufacturer’s protocols (Thermo Scientific, USA). The reaction mixtures were heated at 95 °C for 10 min, followed by 30 cycles at 94 °C for 30 s, 58 °C for 30 s, 72 °C for 20 s, and a final extension at 72 °C for 5 min. Subsequently, PCR products were electrophoresed in a 1.5% agarose gel and scanned using a gel/fluorescence image analysis system. GAPDH was selected as a loading control to standardize the amount of cDNA from each sample.
# MDA-MB-231 cells [7] = test: Morphology of MDA-MB-231 cells after BHX; assay type: cell-based, human; conditions: 24 h incubation, more noticeable at high concentrations
# MDA-MB-231 cells [8] = test: cells; conditions: Homo sapiens, read-out: IC50 of suppression of cell viability
# Method: After incubation, MTT solution (5 mg/ml, 20 μl per well) was added and incubated for 4 h. The culture media were then replaced with dimethyl sulfoxide (DMSO, 150 μl). […] The results are expressed as mean percentage of viable cells relative to untreated cells.
# [9] = system: E-cadherin mRNA in MDA-MB-231 cells; test: PCR analysis of E-cadherin mRNA; assay type: cell-based, human; conditions: 24 h
# Method: as §3
# [10] = system: Snail protein in MDA-MB-231 cells; test: Western blotting of Snail; assay type: cell-based, human; conditions: western blot
# Method: as §1
# [11] = system: β-catenin protein in MDA-MB-231 cells; test: Western blotting of β-catenin; assay type: cell-based, human
# Method: as §1
# MDA-MB-231 cells [12] = test: Detection of apoptosis (annexin V/PI flow cytometry); assay type: cell-based, human; conditions: 24 h
# Method: Flow cytometry was performed using PI and FITC-labelled annexin V (BD Pharmingen, CA, USA) staining according to the manufacturer’s protocol. […] After incubation at room temperature in the dark for 15 min, 400 μl of binding buffer (1×) was added. The samples were analysed within 1 h by flow cytometry (FACSCanto II, BD, San Jose, CA).
smiles,measurement,setting,value
O=C(NCc1ccc(O)cc1)C1C(c2ccccc2)C(c2ccccc2)=NN1c1ccccc1 (stereo not drawn) [BHX],half-life,"[1]; 100 ug/kg, 100 μg/kg, read-out: t1/2 (converted)",4.11 ± 0.81 h
same,AUC(0-t),"[1]; 100 ug/kg, first AUC0-t line",2300 ± 412 ng·h/mL
same,AUC(0-t),"[1]; 100 ug/kg, second AUC0-t line",2350 ± 303 ng·h/mL
same,Tmax,"[1]; Fig. 7c, read-out: time to peak plasma level post administration",~6 h
same,cytotoxic effects,MGC803,exhibits cytotoxic effects
same,cytotoxic effects,HT29,exhibits cytotoxic effects
same,average tumour volume,"[2]; 100 mg/kg for 21 days, vehicle 1179 ± 128 mm^3",754 ± 96 mm^3
same,tumour size compared to control group,"[2]; 100, 200 mg/kg, daily intraperitoneal, 21 days, p < 0.01",significant decrease in tumour size
same,body weight of treated mice,"[2]; 21 days treatment, p > 0.05",no significant loss of body weight
same,bioluminescent intensity of tumours,"[2]; 21 days, dose not stated, control 8.90 ± 0.74 × 10^7",6.13 ± 0.52 × 10^7 p/sec/cm^2/sr
same,E-cadherin protein level,[3],up-regulating the protein and mRNA levels of E-cadherin
same,inhibition at 5 µM,MDA-MB-231 cells [4]; 5 μM,34.4 ± 1.06%
same,inhibition at 10 µM,MDA-MB-231 cells [4]; 10 μM,71 ± 1.65%
same,inhibition at 20 µM,MDA-MB-231 cells [4]; 20 μM,90.32 ± 0.68%
same,reduction of invasive potential,MDA-MB-231 cells [5],48.38%
same,reduction of Snail expression,[6]; 5 μM,7.03%
same,reduction of Snail expression,[6]; 10 μM,15.88%
same,reduction of Snail expression,[6]; 20 μM,27.14%
same,morphological changes,MDA-MB-231 cells [7],cell shrinkage and fragmentation
same,IC50,"MDA-MB-231 cells [8]; MDA-MB-231, 24 h",28.1 µM
same,IC50,"MDA-MB-231 cells [8]; MDA-MB-231, 72 h",13.8 µM
same,increase of E-cadherin mRNA levels compared to control,[9]; 5 μM,1.39 fold
same,increase of E-cadherin mRNA levels compared to control,[9]; 10 μM,1.65 fold
same,increase of E-cadherin mRNA levels compared to control,[9]; 20 μM,2.06 fold
same,Snail protein expression,[10],down-regulating Snail and vimentin expression in a dose-dependent manner
same,β-catenin expression by western blotting,[11],suppressed β-catenin expression in a concentration-dependent manner
same,early apoptotic cells vs vehicle,MDA-MB-231 cells [12],increased the percentage of early apoptotic cells
